This note sets out measurements from PMC3517147 (Chembiochem : a European journal of chemical biology, 2012).

Assay [1] has as its target T1, AICAR Tfase activity of avian ATIC (Gallus gallus, UniProt P31335).
T1 sequence (P31335 1-593): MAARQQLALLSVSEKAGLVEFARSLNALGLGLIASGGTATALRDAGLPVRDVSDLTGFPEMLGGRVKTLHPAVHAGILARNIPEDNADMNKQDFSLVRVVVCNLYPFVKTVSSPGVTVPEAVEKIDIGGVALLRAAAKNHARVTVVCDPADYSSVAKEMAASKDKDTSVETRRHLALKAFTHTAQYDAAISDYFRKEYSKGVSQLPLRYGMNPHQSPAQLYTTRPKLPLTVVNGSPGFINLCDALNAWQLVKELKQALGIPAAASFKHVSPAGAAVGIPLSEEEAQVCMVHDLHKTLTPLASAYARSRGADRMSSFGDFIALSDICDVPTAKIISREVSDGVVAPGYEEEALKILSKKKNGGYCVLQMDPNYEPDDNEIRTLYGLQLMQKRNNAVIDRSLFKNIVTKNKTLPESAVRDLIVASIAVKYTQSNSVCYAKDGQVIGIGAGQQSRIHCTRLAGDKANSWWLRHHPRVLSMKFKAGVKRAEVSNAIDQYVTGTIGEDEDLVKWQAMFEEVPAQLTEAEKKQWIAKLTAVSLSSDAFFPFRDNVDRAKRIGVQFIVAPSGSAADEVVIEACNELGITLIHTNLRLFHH
Description: AICAR Tfase inhibition assay.

Assay [2] concerns the target human ATIC homodimer (Homo sapiens, UniProt P31939). Nature of the assay: Size exclusion chromatography of ATIC monomer/dimer ratio. It is filed as binding. The note with it: 50 μM ATIC treated with 10 μM compound. A general note: SEC sorts molecules by how far they enter the pores of the column.
The target of assay [3] is T2, AICAR Tfase activity of ATIC (Gallus gallus, UniProt P31335).
T2 sequence (P31335 1-593): T1 sequence (P31335 1-593)
Description: AICAR Tfase inhibition in the presence of BSA. The note with it: compound at 10 μM and 50 μM; 1 mg/mL and 10 mg/mL BSA. It counts as biochemical.

Assay [4] has as its system MCF-7 cells. Description: Live-cell imaging. It counts as cell-based. Conditions: MCF-7, 250 μM.
Assay [5] has as its target human ATIC (Homo sapiens, UniProt P31939). Description: AICAR Tfase inhibition assay with human ATIC. It counts as biochemical.
For assay [6], the system named is MCF-7 cells. Description: MTS-based cell proliferation. Conditions: 48 hours after dosing.

Read-outs that look alike come from different tables or passages of the source. Peptide text beside a SMILES is read from it. Bounds are passed on as bounds.

Sequence of human ATIC (P31939 whole entry): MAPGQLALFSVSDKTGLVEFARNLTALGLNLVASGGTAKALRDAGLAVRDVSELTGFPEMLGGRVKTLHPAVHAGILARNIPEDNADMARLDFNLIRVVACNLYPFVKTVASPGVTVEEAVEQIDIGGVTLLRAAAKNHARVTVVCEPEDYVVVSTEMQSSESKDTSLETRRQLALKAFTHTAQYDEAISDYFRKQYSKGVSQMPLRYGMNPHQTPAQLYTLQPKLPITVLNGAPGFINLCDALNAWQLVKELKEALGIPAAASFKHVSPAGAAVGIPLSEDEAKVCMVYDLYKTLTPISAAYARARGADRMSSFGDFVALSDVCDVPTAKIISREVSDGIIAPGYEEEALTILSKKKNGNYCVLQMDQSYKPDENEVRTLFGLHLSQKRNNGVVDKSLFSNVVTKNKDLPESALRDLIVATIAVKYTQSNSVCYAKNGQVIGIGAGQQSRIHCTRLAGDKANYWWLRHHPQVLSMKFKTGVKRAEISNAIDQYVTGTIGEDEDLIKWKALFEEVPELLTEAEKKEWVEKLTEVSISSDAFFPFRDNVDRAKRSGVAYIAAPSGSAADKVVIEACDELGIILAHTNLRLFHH
Sequence of human ATIC homodimer (P31939 whole entry): as above

As for `CC(C)[C@@H]1NC(=O)[C@H](CC(N)=O)NC(=O)[C@H](C)NC(=O)[C@H](Cc2ccc(O)cc2)NC(=O)[C@H](CCCNC(=N)N)NC(=O)[C@H](CS)NC1=O` [Compound 5, cyclo-CRYANV] (cyclo(ANVCRY)), the Ki (in general, a dissociation constant, usually derived from enzyme kinetics or from competition with a known ligand) in assay [1] was 38 ± 5 µM.

`CCN(CC)C(=O)[C@H](Cc1ccc([N+](=O)[O-])cc1)NC(=O)[C@H](CCCNC(=N)N)NC(C)=O` [Compound 14, Acetyl-Arg-CONH-Phe(4-NO2)-L-Diethylamide]: the “ATIC species observed by size exclusion chromatography” value in assay [2] is “presence of monomeric ATIC”. The “AICAR Tfase inhibition in presence of BSA” value in assay [3] is “continued to inhibit the reaction to a similar extent as observed in the absence of BSA”. For the same compound, in assay [4] (analysis of videos over 72 hours), the “mechanism of effect on cell numbers” value is on record as “reduction in cell division rates, rather than an increase in cell death”. For the same compound, the “reduction in proliferation compared to control-treated cells” value in assay [4] (time-lapse microscopy over 72 hours) is listed as 35%. Also, the Ki in assay [1] (Table 2, RY analogues, avian ATIC, 25 °C) was 0.685 ± 0.035 µM. Also, the “fold improvement in activity compared to capped RY dimer 8” value in assay [1] (from Ki values of Table 2) was 120 fold. For the same compound, the “Ki with human ATIC compared to the avian enzyme” value in assay [5] is “same Ki (within error)”. For the same compound, the inhibition of viability in assay [6] (MCF-7, 500 μM (maximum dose)) was determined as 40%. In assay [6] (MCF-7, 100, 250 or 500 μM), the “effect on viability” value is given as “dose-dependent reduction in viability”.

Turning to `CC(C)[C@@H]1NC(=O)[C@H](CC(N)=O)NC(=O)[C@H](Cc2ccccc2)NC(=O)[C@H](C)NC(=O)[C@H](CCCNC(=N)N)NC(=O)[C@H](CS)NC1=O` [Compound 4, cyclo-CRAFNV] (cyclo(AFNVCR)), the Ki in assay [1] is greater than 2500 µM.

Consider `C[C@@H]1NC(=O)[C@H](CC(N)=O)NC(=O)[C@H](Cc2ccccc2)NC(=O)[C@H](Cc2ccc(O)cc2)NC(=O)[C@H](CCCNC(=N)N)NC(=O)[C@H](CS)NC1=O` [Compound 7, cyclo-CRYFNA] (cyclo(ACRYFN)), for which the Ki in assay [1] was 252 ± 22 µM.

Take `CC(C)[C@@H]1NC(=O)[C@H](CC(N)=O)NC(=O)[C@H](Cc2ccccc2)NC(=O)[C@H](Cc2ccc(O)cc2)NC(=O)[C@H](CCCNC(=N)N)NC(=O)[C@H](C)NC1=O` [Compound 2, cyclo-ARYFNV] (cyclo(ARYFNV)): the affinity in assay [1] corresponds to a Ki of 651 ± 25 µM. This Ki is about 2.6-fold higher than that of the compound before.

In the case of linear-CRYFNV [reference compound], the “fold loss of activity compared to cyclo-CRYFNV” value in assay [1] (from Ki values) worked out at 8 fold.

For `CC(C)[C@@H]1NC(=O)[C@H](C)NC(=O)[C@H](Cc2ccccc2)NC(=O)[C@H](Cc2ccc(O)cc2)NC(=O)[C@H](CCCNC(=N)N)NC(=O)[C@H](CS)NC1=O` [Compound 6, cyclo-CRYFAV] (cyclo(AVCRYF)), the affinity in assay [1], expressed as Ki, was 368 ± 29 µM.

`CC(C)[C@@H]1NC(=O)[C@H](CC(N)=O)NC(=O)[C@H](Cc2ccccc2)NC(=O)[C@H](Cc2ccc(O)cc2)NC(=O)[C@H](C)NC(=O)[C@H](CS)NC1=O` [Compound 3, cyclo-CAYFNV] (cyclo(AYFNVC)): the Ki in assay [1] is greater than 2500 µM.

For `CC(C)[C@@H]1NC(=O)[C@H](CC(N)=O)NC(=O)[C@H](Cc2ccccc2)NC(=O)[C@H](Cc2ccc(O)cc2)NC(=O)[C@H](CCCNC(=N)N)NC(=O)[C@H](CS)NC1=O` [Compound 1, cyclo-CRYFNV] (cyclo(RYFNVC)), the “Ki with human ATIC compared to the avian enzyme” value in assay [5] was “same Ki (within error)”.
